One assay concerns gastric acid secretion. The following applies: cited from earlier work.
The target in assay [1] is T1, CCK-B (guinea pig cortex) (Cavia porcellus, UniProt H0VZC5).
T1 construct: guinea pig cortical preparations; from tissue; host or cells: guinea pig brain cortex membranes
T1 sequence (H0VZC5 1-426): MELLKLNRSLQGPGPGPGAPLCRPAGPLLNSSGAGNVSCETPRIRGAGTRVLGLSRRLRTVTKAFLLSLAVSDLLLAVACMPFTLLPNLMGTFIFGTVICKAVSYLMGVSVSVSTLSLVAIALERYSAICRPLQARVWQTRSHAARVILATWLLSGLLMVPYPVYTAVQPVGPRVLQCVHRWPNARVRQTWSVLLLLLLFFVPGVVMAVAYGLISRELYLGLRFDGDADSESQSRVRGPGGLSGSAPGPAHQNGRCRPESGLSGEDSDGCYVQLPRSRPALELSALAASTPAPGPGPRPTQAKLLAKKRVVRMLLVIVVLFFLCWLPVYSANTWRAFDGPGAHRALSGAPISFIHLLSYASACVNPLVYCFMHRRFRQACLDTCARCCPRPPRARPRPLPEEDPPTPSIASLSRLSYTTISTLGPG
As to the kind of experiment: [125I]BHCCK-8 radioligand binding, guinea pig cortical preparation. The conditions noted are these: read-out: CCK binding inhibition - IC50, [125I]BHCCK. The procedure: (§1) The resulting supernatant was re-spun at 20,000×g for 20 minutes. […] Incubations were for 40 minutes at 4° C. and were terminated by filtration and washing with ice cold 100 mM saline. […] Incubations were for 30 minutes at room temperature and were terminated by filtration over GF/C filters and washing with 100 mM NaCl.

Assay [2] deals with T1, CCK-B (guinea pig cortex). The experiment in a line: [3H]L-365,260 CCK-B selective antagonist ligand binding, brain membranes. The conditions noted are these: for IC50: read-out: CCK binding inhibition - IC50, [3H]L-365,260. As for the experimental part: as §1
For assay [3], the target named is T2, CCK-A (rat pancreas) (Rattus norvegicus, UniProt P30551).
T2 construct: from tissue; host or cells: rat pancreas
T2 sequence (P30551 1-444): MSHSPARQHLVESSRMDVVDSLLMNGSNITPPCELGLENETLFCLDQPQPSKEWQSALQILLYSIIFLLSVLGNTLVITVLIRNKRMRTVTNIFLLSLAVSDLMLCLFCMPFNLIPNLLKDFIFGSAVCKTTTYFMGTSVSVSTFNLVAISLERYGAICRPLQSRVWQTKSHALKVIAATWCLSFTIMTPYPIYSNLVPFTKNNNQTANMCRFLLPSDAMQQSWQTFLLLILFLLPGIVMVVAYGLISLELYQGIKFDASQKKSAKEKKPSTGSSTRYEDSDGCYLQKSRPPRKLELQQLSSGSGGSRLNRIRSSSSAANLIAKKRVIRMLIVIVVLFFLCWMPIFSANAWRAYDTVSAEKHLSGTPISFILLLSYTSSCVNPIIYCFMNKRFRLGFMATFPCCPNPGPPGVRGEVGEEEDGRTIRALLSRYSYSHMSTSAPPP
The experiment in a line: [125I]BHCCK-8 radioligand binding, rat pancreatic preparation. The conditions noted are these: read-out: CCK binding inhibition - IC50, [125I]BHCCK. As for the experimental part: as §1

For assay [4], the target named is T2, CCK-A (rat pancreas). As to the kind of experiment: [3H]L-364,718 CCK-A selective antagonist ligand binding, pancreas. The conditions noted are these: read-out: CCK binding inhibition - IC50, [3H]L-364,718. The procedure: as §1
A further assay has as its system Bacillus sp. (Mb 633). As to the kind of experiment: Agar diffusion disc assay, Baci 633. The class given is cell-based. The following applies: Bacillus, 18 h, @ 20 g/disc; read-out: Inhibition zone diameter, Baci 633. In short, it runs like this:
(§2)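 Serial dilutions from a 1 mg/ml methanol solution, 20 μl applied to 6 mm paper discs, dried, and placed on agar seeded with ~10^6 cfu. Overnight (~18 hours) incubation at 25° C; inhibition zone sizes measured to nearest mm, triplicate means; agar diffusion MIC determined per Barry.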

The subject of assay [5] is Staphylococcus aureus (Mb 108, ATCC 6538P). As to the kind of experiment: Agar diffusion disc assay, Sta 108. The class given is cell-based. The conditions noted are these: Staphylococcus aureus, ATCC6538P, 18 h; @ 20 g/disc; read-out: Inhibition zone diameter, Sta 108. In short, it runs like this: as §2
Assay [6] concerns Bacillus subtilis (Mb 964, ATCC 6633). The experiment in a line: Agar diffusion disc assay, Subt 964. The class given is cell-based. The following applies: Bacillus subtilis, ATCC6633, 18 h; @ 20 g/disc; read-out: Inhibition zone diameter, Subt 964. In short, it runs like this: as §2
In assay [7] the test system is Micrococcus luteus (Mb 1101, ATCC 9341). The experiment in a line: Agar diffusion disc assay, Micr 1101. The assay is classed as cell-based. The conditions noted are these: Micrococcus luteus; for MIC: read-out: Agar Diffusion MIC versus Micrococcus luteus; for zone of inhibition at 10 µg/disc: 10.0 μg/disc. Summed up: as §2
Assay [8] deals with Staphylococcus aureus (Mb 2983). As to the kind of experiment: Agar diffusion disc assay, Sta 2983. The class given is cell-based. The conditions noted are these: Staphylococcus aureus, 18 h; @ 20 g/disc; read-out: Inhibition zone diameter, Sta 2983. In short, it runs like this:
as §2

In assay [9] the test system is Corynebacterium pseudodiphtheriticum (Mb 261, ATCC 9742). The experiment in a line: Agar diffusion disc assay, Cory 261. The assay is classed as cell-based. The conditions noted are these: Corynebacterium pseudodiphtheriticum, ATCC9742, 18 h; @ 20 g/disc; read-out: Inhibition zone diameter, Cory 261. In short, it runs like this:
as §2

For assay [10], the system named is Streptococcus faecium (Mb 2820). The experiment in a line: Agar diffusion disc assay, Str 2820. The assay is classed as cell-based. The conditions noted are these: Enterococcus faecium, 18 h; @ 20 g/disc; read-out: Inhibition zone diameter, Str 2820. In short, it runs like this:
as §2

For assay [11], the system named is Streptococcus agalactiae (Mb 2875). The experiment in a line: Agar diffusion disc assay, Str 2875. The class given is cell-based. The following applies: Streptococcus agalactiae, 18 h; @ 20 g/disc; read-out: Inhibition zone diameter, Str 2875. Summed up:
as §2

Assay [12] relates to Salmonella gallinarum (Mb 1287). As to the kind of experiment: Agar diffusion disc assay, Salm 1287. The class given is cell-based. The conditions noted are these: Salmonella enterica, GALLINARUM, 18 h; @ 20 g/disc; read-out: Inhibition zone diameter, Salm 1287. Summed up:
as §2

Assay [13] concerns Escherichia coli (Mb 1418). The experiment in a line: Agar diffusion disc assay, Coli 1418. The class given is cell-based. The following applies: Escherichia coli, 18 h; @ 20 g/disc; read-out: Inhibition zone diameter, Coli 1418. Summed up:
as §2

For assay [14], the system named is Pseudomonas stutzeri (Mb 1231, ATCC 11607). The experiment in a line: Agar diffusion disc assay, Pseu 1231. The assay is classed as cell-based. The conditions noted are these: Stutzerimonas stutzeri, ATCC11607, 18 h; @ 20 g/disc; read-out: Inhibition zone diameter, Pseu 1231. Summed up:
as §2

Assay [15] has as its system En terobacter aergenes (Mb 835). As to the kind of experiment: Agar diffusion disc assay, Ent 835. The assay is classed as cell-based. The following applies: 18 h; @ 20 g/disc; read-out: Inhibition zone diameter, Ent 835. Summed up:
as §2

[16] abbreviates: ATCC9341, 18 h, @ 20 g/disc, read-out: Inhibition zone diameter, Micr 1101.
Setting [17] is: ATCC9341, 25° C., ~18 hours, read-out: Mean of triplicate zone size versus Micrococcus luteus.
Where [18] appears, read: ATCC9341, 20.0 μg/disc, 25° C., ~18 hours, read-out: Mean of triplicate zone size versus Micrococcus luteus.

Converted amounts (≈) assume the structure as drawn. Where two headings read alike, the source gives them in different places.

As for Gastrin-17, in the assay with gastric acid secretion, the “potency for stimulating gastric acid secretion relative to Gastrin-13” value is given as 2.5 times and the “potency for stimulating gastric acid secretion relative to Gastrin-34” value is listed as 5 times.

For the compound `CC(=O)O[C@@H]1/C=C(C)/C=C/CNC(=O)/C=C/[C@@H](C)[C@@H](C(C)C)OC(=O)C2=CCCN2C(=O)c2coc(n2)CC(=O)C1` [Example 2], the IC50 in assay [1] is 0.7 µM; in assay [2] it was > 3 µM; at CCK-A (rat pancreas) [3] it was > 3 µM; on CCK-A (rat pancreas) [4], > 3 µM. Moreover, the “A.R. = agonist ratio = IC50([3H]L365,260)/IC50([125I]CCK)” value in [2] is listed as > 25. In addition, the “percentage in parentheses beside >3.0, [3H]L-365,260 (inhibition at top concentration, not defined)” value in assay [2] (beside IC50 >3.0) was found to be 21%. Also, the zone of inhibition at 20 µg/disc in the assay with Bacillus sp. (Mb 633) came out at 0 mm; in [5], 11 mm; in assay [6] it was 0 mm; in assay [7] (setting [16]), 21 mm; in [7] (setting [18]), 21 mm; in assay [8], 0 mm. In addition, the zone of inhibition at 20 µg/disc came to 13 mm in assay [9]; 0 mm in assay [10]; 0 mm in assay [11]; 0 mm in assay [12]; 0 mm in assay [13]; 0 mm in assay [14]. The zone of inhibition at 20 µg/disc in assay [15] came to 0 mm. Further, the minimal inhibitory concentration (MIC) in assay [7] (ATCC9341, 18 h) was 3.24 µM (≈ 1.84 µg/mL). Also, the zone of inhibition at 2.5 µg/disc in assay [7] (ATCC9341, 2.50 μg/disc, 25° C., ~18 hours, read-out: Mean of triplicate zone size versus Micrococcus luteus) came to 7 mm. Further, the zone of inhibition at 5 µg/disc in assay [7] (ATCC9341, 5.00 μg/disc, 25° C., ~18 hours, read-out: Mean of triplicate zone size versus Micrococcus luteus) amounted to 14 mm. The zone of inhibition at 10 µg/disc in [7] (setting [17]) was found to be 18 mm.

For the compound `CC1=C\[C@@H](OC(=O)Nc2cccc([N+](=O)[O-])c2)CC(=O)Cc2nc(co2)C(=O)N2CCC=C2C(=O)O[C@H](C(C)C)[C@H](C)/C=C/C(=O)NC\C=C\1` [Example 9], the IC50 in assay [1] was 0.4 µM; in assay [2], 5.2 µM; on CCK-A (rat pancreas) [3], > 3 µM; at CCK-A (rat pancreas) [4] it was > 3 µM. The “A.R. = agonist ratio = IC50([3H]L365,260)/IC50([125I]CCK)” value in assay [2] was 12.9. Moreover, the zone of inhibition at 20 µg/disc with Bacillus sp. (Mb 633) is 0 mm; in assay [5], 0 mm; in [6] it was 0 mm; in assay [7] (setting [16]) it was 8 mm; in [7] (setting [18]), 9 mm; in assay [8], 0 mm. Besides, the zone of inhibition at 20 µg/disc in assay [9], in [10], in assay [11], in [12], in assay [13] and in assay [14] was 0 mm in each case. Further, in assay [15], the zone of inhibition at 20 µg/disc amounted to 0 mm. For the same compound, in assay [7] (ATCC9341, 18 h), the MIC came out at 0.82 µM (≈ 0.566 µg/mL). The zone of inhibition at 10 µg/disc in [7] (setting [17]) is 8 mm. Further, the zone of inhibition at 40 µg/disc in [7] (ATCC9341, 40.0 μg/disc, 25° C., ~18 hours, read-out: Mean of triplicate zone size versus Micrococcus luteus) turned out to be 10 mm. Besides, in assay [7] (ATCC9341, 80.0 μg/disc, 25° C., ~18 hours, read-out: Mean of triplicate zone size versus Micrococcus luteus), the zone of inhibition at 80 µg/disc was found to be 11 mm. Moreover, the zone of inhibition at 160 µg/disc in [7] (ATCC9341, 160 μg/disc, 25° C., ~18 hours, read-out: Mean of triplicate zone size versus Micrococcus luteus) came to 11 mm.
